Tests used:
Boophilus microplus = Boophilus microplus - injection test; assay type: in vivo; conditions: application rate 20 μg/animal; injection into engorged adult female ticks; after 7 days
How it was run: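 Active ingredient in DMSO, 1 μl injected into the abdomen of 5 engorged adult female ticks, then held in a climate-controlled room. Efficacy scored after 7 days from laying of fertile eggs, with non-fertile-looking eggs kept about 42 days for larval hatch; 100% means no fertile eggs.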

Rhipicephalus sanguineus = Rhipicephalus sanguineus - in vitro contact tests with adult brown dog ticks; assay type: in vivo; conditions: after 48 h, ticks dead or moribund
How it was run: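 Test tubes coated with active ingredient in acetone, 5 μg/cm^2 at 900 ppm. 5-10 adult ticks per tube, kept dark at room temperature for 48 h. Ticks then heated at 45-50° C ≤5 min; motionless or uncoordinated ticks scored dead/moribund, efficacy as % dead or moribund.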

Musca domestica = Musca domestica test; assay type: in vivo; conditions: application rate 100 ppm; adult houseflies; after 2 days
How it was run: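 Compound dissolved in DMSO (10 mg per 0.5 ml) and diluted with water to the test concentration. Sponges soaked with sugar solution plus formulation were offered to 10 adult houseflies per vessel. Mortality (% kill, 100% = all dead, 0% = none) scored after 2 days.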

Ctenocephalides felis [1] = test: Ctenocephalides felis - oral test; assay type: in vivo; conditions: application rate 100 ppm in citrated cattle blood; after 2 days
How it was run: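 Compound in DMSO diluted into citrated cattle blood, fed through a parafilm membrane to about 20 unfed adult cat fleas. Kill in % scored after 2 days (100% = all dead).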

Lucilia cuprina = Lucilia cuprina test; assay type: in vivo; conditions: application rate 100 ppm; L1 larvae; after 2 days
How it was run: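 About 20 L1 larvae placed on minced horsemeat treated with compound, formulated in DMSO and diluted with water to test concentration. Kill in % scored after 2 days (100% = all larvae dead, 0% = none).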

Tetranychus urticae = Tetranychus urticae - spray test, OP-resistant; assay type: in vivo; conditions: application rate 500 g/ha; bean leaf discs; after 6 days
How it was run: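 Compound dissolved in acetone/DMF, diluted with water containing 1000 ppm alkylaryl polyglycol ether emulsifier to test concentrations. Bean leaf discs infested with all stages of spider mites were sprayed; % kill determined after 6 days (100% = all mites dead, 0% = none).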

Spodoptera frugiperda = Spodoptera frugiperda - spray test; assay type: in vivo; conditions: application rate 500 g/ha; caterpillars on maize leaf discs; after 7 days
How it was run: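 Maize leaf discs sprayed with compound formulated in acetone/DMF and diluted in water containing 1000 ppm alkylaryl polyglycol ether emulsifier, then infested with armyworm caterpillars after drying. Efficacy scored after 7 days as % caterpillars killed (100% all, 0% none).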

Phaedon cochleariae = Phaedon cochleariae - spray test; assay type: in vivo; conditions: application rate 500 g/ha; larvae on Chinese cabbage leaf discs; after 7 days
How it was run: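 Chinese cabbage leaf discs sprayed with compound formulated in acetone/DMF and water containing 1000 ppm emulsifier; once dry, infested with mustard beetle larvae. Efficacy (% larvae killed) scored after 7 days.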

[2] = tested on: Boophilus microplus Parkhurst strain, SP-resistant; test: Boophilus microplus - dip test; assay type: in vivo; conditions: application rate 100 ppm; dip of engorged adult female ticks; after 7 days
How it was run: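 SP-resistant Parkhurst strain engorged adult female Boophilus microplus (8-10 per tube) dipped in DMSO-based compound dilutions in water, then kept in a climate-controlled room. Efficacy scored after 7 days from fertile egg laying, with larval hatch checked after about 42 days; 100% means no fertile eggs.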

Ctenocephalides felis [3] = test: Ctenocephalides felis - in vitro contact tests with adult cat fleas; assay type: in vivo; conditions: application rate 5 μg/cm2 (=500 g/ha); after 48 h; fleas dead or moribund
How it was run: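 Tubes coated with compound in acetone (250 μl of 900 ppm solution gives 5 μg/cm^2 on 44.7 cm^2), solvent evaporated, then 5–10 adult fleas added and kept horizontal at room temperature and ambient humidity. After 48 h, dead or moribund (motionless/uncoordinated) fleas scored as % efficacy.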

Amblyomma hebraeum = test: Amblyomma hebaraeum test (tick nymphs, immersion); assay type: in vivo; conditions: application rate 100 ppm; tick nymphs immersed one minute; after 42 days
How it was run: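 Tick nymphs immersed for one minute in compound diluted in water from a DMSO concentrate, then held on filter paper in a Petri dish in a climate-controlled cabinet. Kill (%) scored after 42 days; 100% means all ticks dead, 0% none.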

Myzus persicae = Myzus persicae - spray test; assay type: in vivo; conditions: Chinese cabbage leaf discs, after 6 days
How it was run: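 Chinese cabbage leaf discs carrying all stages of Myzus persicae sprayed with compound in acetone/DMF diluted in water with 1000 ppm emulsifier. Efficacy (% aphids killed) assessed after 6 days.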

[4] = logP determination by HPLC on a reversed-phase column (C18); assay type: physicochemical; conditions: for logP^a): HPLC-MS method a); for log P: HPLC-MS
[5] = reversed-phase column (C18), Table I-T3

| SMILES | efficacy (laying of fertile eggs) (Boophilus microplus) [%] | efficacy (Rhipicephalus sanguineus; application rate 5 μg/cm2) [%] | efficacy (kill) (Musca domestica) [%] | efficacy (kill) (Ctenocephalides felis [1]) [%] | efficacy (kill) (Lucilia cuprina) [%] | efficacy (Tetranychus urticae) [%] | efficacy (Spodoptera frugiperda) [%] | efficacy (Phaedon cochleariae) [%] | efficacy (laying of fertile eggs) [2] [%] | efficacy (Ctenocephalides felis [3]) [%] | efficacy (kill) (Amblyomma hebraeum) [%] | efficacy (Myzus persicae; application rate 500 g/ha) [%] | logP^a) ([4]; reversed-phase column (C18)) | log P [4, 5] | logP^a) [4] | efficacy (Myzus persicae; application rate 100 g/ha) [%] | efficacy (Rhipicephalus sanguineus; application rate 1 μg/cm2) [%] | logP^a) [4, 5] |
| --- | --- | --- | --- | --- | --- | --- | --- | --- | --- | --- | --- | --- | --- | --- | --- | --- | --- | --- |
| Cc1cc(C(F)(C(F)(F)F)C(F)(F)F)cc(C(F)(F)F)c1-n1cc(-c2cnc(C)c(C(=O)NC3CC3)c2)cn1 [I-T3-117] | 100 | 100 | 100 | 100 | 100 | 90 | 100 | 100 | 100 | 100 | 100 | 90 | 3.5 | 3.5 |  |  |  |  |
| Cc1cc(C(F)(C(F)(F)F)C(F)(F)F)cc(C)c1-n1cc(-c2cnc(C)c(C(=O)NC3(C#N)CC3)c2)cn1 [I-T3-97] | 100 | 100 | 100 | 100 | 100 | 100 | 100 | 100 | 100 | 100 | 100 | 90 |  | 3.4 | 3.4 |  |  |  |
| Cc1cc(C(F)(C(F)(F)F)C(F)(F)F)cc(C)c1-n1cc(-c2cnc(C)c(C(=O)NC3CC3)c2)cn1 [I-T3-96] | 100 | 100 | 100 | 100 | 100 | 100 | 100 | 100 | 100 | 100 | 100 |  |  | 3.3 | 3.3 | 90 |  |  |
| N#CC1(NC(=O)c2cc(-c3cnn(-c4c(Cl)cc(C(F)(C(F)(F)F)C(F)(F)F)cc4C(F)(F)F)c3)cnc2Cl)CC1 [I-T3-114] | 100 |  | 100 | 100 | 100 | 100 | 100 | 100 | 100 | 100 | 100 | 90 | 4.0 | 4.0 |  |  | 100 |  |
| N#CC1(NC(=O)c2cc(-c3cnn(-c4c(Cl)cc(C(F)(C(F)(F)F)C(F)(F)F)cc4Cl)c3)cnc2Cl)CC1 [I-T3-43] | 100 | 80 | 100 | 100 | 100 | 100 | 100 | 100 | 100 | 100 | 100 | 100 |  |  | 3.8 |  |  | 3.8 |
| O=C(NC1CC1)c1cc(-c2cnn(-c3c(Cl)cc(C(F)(C(F)(F)F)C(F)(F)F)cc3C(F)(F)F)c2)cnc1Cl [I-T3-112] | 100 | 100 | 100 | 100 | 100 | 100 | 100 | 100 | 100 | 100 | 100 |  | 4.0 | 4.0 |  | 100 |  |  |

From patent US10150737B2, “Compounds for controlling arthropods” (priority 2013, dated 2018)
